Laboratory results taken from PMC3351444, “Molecular Evolution of a Peptide GPCR Ligand Driven by Artificial Neural Networks” (PLoS ONE, 2012).
Read-outs that look alike come from different tables or passages of the source. Square brackets hold non-standard residues; d marks the D form. Ends that are not written are not given here. Peptide text beside a SMILES is read from it.

Experiments:
[1] = In vitro peptide stability in human serum (RP-HPLC); details: for half-life at 50 µg/mL: human; for t1/2: metabolic stability in human serum
[2] = target: T1, human CMKLR1 (Homo sapiens, UniProt Q99788); assay: Ca2+ mobilization (CellLux imaging) agonist assay in HEK293A cells expressing CMKLR1 and Gα15; type: cell-based
T1 construct: host or cells: HEK293A (Invitrogen), stably expressing human Gα15
T1 sequence (Q99788 1-373): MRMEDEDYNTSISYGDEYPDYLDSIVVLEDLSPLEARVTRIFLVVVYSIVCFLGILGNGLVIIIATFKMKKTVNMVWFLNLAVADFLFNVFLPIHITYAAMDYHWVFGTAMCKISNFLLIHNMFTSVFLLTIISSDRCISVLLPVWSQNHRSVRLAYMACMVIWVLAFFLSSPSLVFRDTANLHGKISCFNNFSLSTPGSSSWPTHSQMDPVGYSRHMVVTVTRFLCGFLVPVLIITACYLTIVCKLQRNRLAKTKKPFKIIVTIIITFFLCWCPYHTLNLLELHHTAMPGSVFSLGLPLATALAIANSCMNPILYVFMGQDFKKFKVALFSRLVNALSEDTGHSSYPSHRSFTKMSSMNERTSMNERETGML
Summary of the method: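 HEK293A cells co-expressing CMKLR1 and Gα15 were loaded with FLUO4-AM, and peptides were added robotically in C1 buffer (HEPES pH 7.4, 2 mM CaCl2) with 0.1% BSA. Fluorescence changes were read in duplicate wells, buffer-subtracted and normalized to background. EC50 came from amplitude–concentration plots.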

[3] = Ca2+ mobilization, CMKLR1, decimal comma
[4] = Ca2+ mobilization, CMKLR1, decimal comma, NR where no EC50 is given, read-out: EC50

Row | half-life at 50 µg/mL ([1]; human serum, 25% (v/v) in RPMI) | max response [2, 3] | EC50 [2, 4] | EC50 ([2]; intracellular calcium mobilization, HEK293 cells expressing CMKLR1, mean of three independent experiments ± SD, read-out: activity: EC50 ±SD) | t1/2 [1] | Compound | half-life at 50 µg/mL ([1]; serum)
1 | 40 min | 1,48 DF/F0 | 72.2 nM |  |  | CC(C)C[C@H](NC(=O)[C@H](C)NC(=O)[C@H](Cc1ccc(O)cc1)NC(=O)[C@@H](CCC(N)=O)NC(=O)CNC(=O)[C@@H]1CCCN1C(=O)[C@H](CC(C)C)NC(=O)[C@@H](N)Cc1ccc(O)cc1)C(=O)N[C@H](Cc1ccccc1)C(=O)O [compound 135] (H-YLPG[dQ]YAL[dF]-OH; N-terminus assumed) | 
2 | 215 min | 1,72 DF/F0 | 43.5 nM |  |  | CC(C)C[C@H](NC(=O)[C@@H](N)Cc1ccc(O)cc1)C(=O)N1CCC[C@H]1C(=O)N1CCC[C@@H]1C(=O)N1CCC[C@H]1C(=O)N[C@@H](Cc1ccc(O)cc1)C(=O)N[C@@H](C)C(=O)N[C@@H](Cc1ccccc1)C(=O)N[C@H](Cc1ccccc1)C(=O)O [compound 130] (H-YLP[dP]PYAF[dF]-OH; N-terminus assumed) | 
3 | 19 min | 0,69 DF/F0 | 406 nM |  |  | FLPGALGFF-OH [compound 60] | 
4 | 42 ± 19 min |  |  | 4.17 ± 2.31 nM |  | CC(C)[C@H](NC(=O)[C@@H](N)Cc1ccc(O)cc1)C(=O)N1CCC[C@H]1C(=O)NCC(=O)N[C@@H](CCC(N)=O)C(=O)N[C@@H](Cc1ccccc1)C(=O)N[C@@H](C)C(=O)N[C@@H](Cc1ccccc1)C(=O)N[C@H](Cc1ccccc1)C(=O)O (H-YVPGQFAF[dF]-OH; N-terminus assumed) | 
5 | 92 min | 1,5 DF/F0 | 1940 nM |  |  | CC(C)C[C@H](NC(=O)[C@@H]1CCCN1C(=O)[C@@H](NC(=O)[C@H](Cc1ccc(O)cc1)NC(=O)[C@@H]1CCCN1)C(C)C)C(=O)N[C@H](CC(=O)O)C(=O)N[C@@H](Cc1ccc(O)cc1)C(=O)N[C@@H](C)C(=O)N[C@@H](Cc1ccccc1)C(=O)O [compound 111] (H-PYVPL[dD]YAF-OH; N-terminus assumed) | 
6 | 34 min | 1,73 DF/F0 | 108 nM |  |  | CC(C)C[C@H](NC(=O)[C@@H](N)Cc1ccc(O)cc1)C(=O)N1CCC[C@H]1C(=O)NCC(=O)N[C@@H](CCC(N)=O)C(=O)N[C@@H](Cc1ccc(O)cc1)C(=O)N[C@@H](C)C(=O)N[C@H](C)C(=O)N[C@H](Cc1ccccc1)C(=O)O [compound 141] (H-YLPGQYA[dA][dF]-OH; N-terminus assumed) | 
7 | 91 min | 1,47 DF/F0 | 298 nM |  |  | CC(C)C[C@H](NC(=O)[C@@H](N)Cc1ccc(O)cc1)C(=O)N1CCC[C@H]1C(=O)N[C@H](CC(C)C)C(=O)NCC(=O)N[C@@H](Cc1ccc(O)cc1)C(=O)N[C@@H](C)C(=O)N1CCC[C@@H]1C(=O)N[C@H](Cc1ccccc1)C(=O)O [compound 151] (H-YLP[dL]GYA[dP][dF]-OH; N-terminus assumed) | 
8 | 30 min | 1,51 DF/F0 | 271 nM |  |  | CC(C)C[C@H](NC(=O)[C@@H]1CCCN1)C(=O)N[C@H](CCC(N)=O)C(=O)N[C@@H](Cc1ccc(O)cc1)C(=O)N1CCC[C@H]1C(=O)N[C@@H](Cc1ccc(O)cc1)C(=O)N[C@H](CS)C(=O)N[C@@H](CC(C)C)C(=O)N[C@H](Cc1ccccc1)C(=O)O [compound 149] (H-PL[dQ]YPY[dC]L[dF]-OH; N-terminus assumed) | 
9 | 551 min | 1,67 DF/F0 | 53.2 nM |  |  | CC(C)C[C@H](N)C(=O)N[C@H](Cc1c[nH]c2ccccc12)C(=O)NCC(=O)NCC(=O)N1CCC[C@H]1C(=O)N[C@@H](Cc1ccc(O)cc1)C(=O)N[C@@H](C)C(=O)N[C@H](CC(=O)O)C(=O)N[C@@H](CO)C(=O)O [compound 131] (H-L[dW]GGPYA[dD]S-OH; N-terminus assumed) | 
10 |  | 1,54 DF/F0 |  |  | 159 min | CC(C)C[C@H](NC(=O)[C@@H](N)Cc1ccc(O)cc1)C(=O)N1CCC[C@H]1C(=O)NCC(=O)N[C@@H](CCC(N)=O)C(=O)N[C@@H](Cc1ccc(O)cc1)C(=O)N[C@H](Cc1c[nH]c2ccccc12)C(=O)N[C@@H](Cc1ccccc1)C(=O)N[C@H](Cc1ccccc1)C(=O)O [compound 122] (H-YLPGQY[dW]F[dF]-OH; N-terminus assumed) | 
11 | 24 min | 1,01 DF/F0 | 5.85 nM |  |  | YLPGQFAFL-OH [compound 39] | 
12 | 41 min | 0,73 DF/F0 | 456 nM |  |  | CC(C)C[C@H](NC(=O)[C@@H](N)Cc1ccccc1)C(=O)N1CCC[C@H]1C(=O)NCC(=O)N[C@@H](CCC(N)=O)C(=O)NCC(=O)N[C@H](Cc1ccccc1)C(=O)N[C@@H](Cc1ccccc1)C(=O)N[C@@H](CO)C(=O)O [compound 61] (H-FLPGQG[dF]FS-OH; N-terminus assumed) | 
13 | 24 min | 1,57 DF/F0 | 21.8 nM |  |  | CC(C)[C@H](NC(=O)[C@@H](N)Cc1ccc(O)cc1)C(=O)N1CCC[C@H]1C(=O)NCC(=O)N[C@@H](CCC(N)=O)C(=O)N[C@@H](Cc1ccc(O)cc1)C(=O)N[C@@H](C)C(=O)N[C@@H](Cc1ccccc1)C(=O)N[C@H](CO)C(=O)O [compound 86] (H-YVPGQYAF[dS]-OH; N-terminus assumed) | 
14 |  | 0,96 DF/F0 |  |  | 42 min | CC(C)[C@H](NC(=O)[C@@H](N)Cc1ccc(O)cc1)C(=O)N1CCC[C@H]1C(=O)NCC(=O)N[C@@H](CCC(N)=O)C(=O)N[C@@H](Cc1ccccc1)C(=O)N[C@@H](C)C(=O)N[C@@H](Cc1ccccc1)C(=O)N[C@H](Cc1ccccc1)C(=O)O [compound 35] (H-YVPGQFAF[dF]-OH; N-terminus assumed) | 
15 | 71 min | 1,69 DF/F0 | 129 nM |  |  | C[C@H](NC(=O)CN)C(=O)N[C@@H](Cc1ccccc1)C(=O)N[C@@H](CCC(N)=O)C(=O)N[C@@H](Cc1ccccc1)C(=O)N[C@H](CO)C(=O)N[C@@H](C)C(=O)N[C@@H](Cc1ccccc1)C(=O)N[C@H](CO)C(=O)O [compound 100] (H-GAFQF[dS]AF[dS]-OH; N-terminus assumed) | 
16 | 15 min | 0,76 DF/F0 | 9.54 nM |  |  | YLPGQFQFS-OH [compound 44] | 
17 | 20 min | 0,77 DF/F0 | 3000 nM |  |  | FLPPQFAFF-OH [compound 73] | 
18 | 17 min | 1,04 DF/F0 | 217000 nM |  |  | YLPGYLPGH-OH [compound 77] | 
19 | 421 min | 1,55 DF/F0 | 128 nM |  |  | CC(C)C[C@H](NC(=O)[C@H](N)Cc1ccc(O)cc1)C(=O)N1CCC[C@H]1C(=O)NCC(=O)N[C@H](Cc1c[nH]c2ccccc12)C(=O)N[C@@H](Cc1ccc(O)cc1)C(=O)N[C@@H](C)C(=O)N[C@@H](Cc1ccccc1)C(=O)N[C@H](Cc1ccccc1)C(=O)O [compound 142] (H-[dY]LPG[dW]YAF[dF]-OH; N-terminus assumed) | 
20 | 80 min | 0,9 DF/F0 | 335 nM |  |  | PGPGQFAFF-OH [compound 59] | 
21 | 81 min | 1,67 DF/F0 | 64.4 nM |  |  | C[C@H](NC(=O)[C@@H](N)Cc1ccc(O)cc1)C(=O)N[C@@H](Cc1ccccc1)C(=O)N[C@H](CO)C(=O)N1CCC[C@H]1C(=O)NCC(=O)N[C@@H](CCC(N)=O)C(=O)N[C@@H](Cc1ccccc1)C(=O)N[C@H](CO)C(=O)O [compound 93] (H-YAF[dS]PGQF[dS]-OH; N-terminus assumed) | 
22 | 32 min | 1,74 DF/F0 | 207 nM |  |  | CC(C)C[C@H](NC(=O)[C@H](Cc1ccc(O)cc1)NC(=O)[C@H](CCC(N)=O)NC(=O)[C@@H](Cc1ccccc1)NC(=O)[C@@H](CC(=O)O)NC(=O)[C@@H]1CCCN1C(=O)[C@H](CC(C)C)NC(=O)[C@@H](N)Cc1ccc(O)cc1)C(=O)N1CCC[C@H]1C(=O)O [compound 148] (H-YLP[dD][dF]QYLP-OH; N-terminus assumed) | 
23 | 108 min | 1,42 DF/F0 | 103 nM |  |  | NC(=O)CC[C@H](NC(=O)CNC(=O)[C@@H]1CCCN1C(=O)[C@@H](Cc1ccc(O)cc1)NC(=O)[C@H](Cc1ccc(O)cc1)NC(=O)[C@H](CCC(N)=O)NC(=O)[C@H](N)Cc1ccccc1)C(=O)N[C@@H](Cc1ccc(O)cc1)C(=O)N[C@@H](Cc1ccc(O)cc1)C(=O)O [compound 137] (H-[dF]QY[dY]PGQYY-OH; N-terminus assumed) | 
24 | 52 min | 1,54 DF/F0 | 60.9 nM |  |  | C[C@H](NC(=O)[C@H](Cc1ccc(O)cc1)NC(=O)[C@H](CCC(N)=O)NC(=O)[C@@H](CO)NC(=O)[C@H](Cc1ccccc1)NC(=O)[C@H](C)NC(=O)[C@@H](N)Cc1ccc(O)cc1)C(=O)N[C@@H](Cc1ccccc1)C(=O)N[C@H](CO)C(=O)O [compound 92] (H-YAF[dS]QYAF[dS]-OH; N-terminus assumed) | 

Row | Compound | half-life at 50 µg/mL ([1]; human serum, 25% (v/v) in RPMI) | max response [2, 3] | EC50 [2, 4] | EC50 ([2]; intracellular calcium mobilization, HEK293 cells expressing CMKLR1, mean of three independent experiments ± SD, read-out: activity: EC50 ±SD) | t1/2 [1] | half-life at 50 µg/mL ([1]; serum)
25 | CC(C)C[C@H](NC(=O)[C@H](N)Cc1ccc(O)cc1)C(=O)N1CCC[C@H]1C(=O)N[C@H](CO)C(=O)N[C@@H](CCC(N)=O)C(=O)N[C@@H](Cc1ccc(O)cc1)C(=O)N[C@@H](C)C(=O)N[C@@H](Cc1ccccc1)C(=O)N[C@H](Cc1ccccc1)C(=O)O [compound 120] (H-[dY]LP[dS]QYAF[dF]-OH; N-terminus assumed) |  | 1,97 DF/F0 |  |  |  | 1690 min
